From US11814364B2, “Pyridine N-oxide derivatives useful as factor XIa inhibitors” (Janssen Pharmaceutica NV, priority 2021, dated 2023)

Target: human plasma kallikrein (Homo sapiens, UniProt P03952)
Assay: Kallikrein inhibition FLINT assay with quenched AMC peptide substrate Z-Gly-Pro-Arg-AMC (end point EP or kinetic KIN reads)
Format: biochemical
Conditions: kinetic reads at 5 min intervals over 30 min; read-out: Kallikrein (KIN) IC50
Method in brief: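 Enzyme and compound were preincubated 30 min before adding 50 μM AMC substrate in pH 7.5 Tris/NaCl/CaCl2/BSA/CHAPS buffer. AMC release was read at 30 min endpoint or every 5 min.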

Chain of human plasma kallikrein (P03952 391-638 limits assumed): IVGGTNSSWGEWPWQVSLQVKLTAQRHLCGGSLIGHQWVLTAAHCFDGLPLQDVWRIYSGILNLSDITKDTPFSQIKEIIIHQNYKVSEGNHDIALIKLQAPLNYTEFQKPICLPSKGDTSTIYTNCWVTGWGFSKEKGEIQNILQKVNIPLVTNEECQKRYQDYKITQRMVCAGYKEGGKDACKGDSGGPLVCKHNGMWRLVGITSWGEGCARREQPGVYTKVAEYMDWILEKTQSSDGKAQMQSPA
Chain of human plasma kallikrein (P03952 20-390 partner limits assumed): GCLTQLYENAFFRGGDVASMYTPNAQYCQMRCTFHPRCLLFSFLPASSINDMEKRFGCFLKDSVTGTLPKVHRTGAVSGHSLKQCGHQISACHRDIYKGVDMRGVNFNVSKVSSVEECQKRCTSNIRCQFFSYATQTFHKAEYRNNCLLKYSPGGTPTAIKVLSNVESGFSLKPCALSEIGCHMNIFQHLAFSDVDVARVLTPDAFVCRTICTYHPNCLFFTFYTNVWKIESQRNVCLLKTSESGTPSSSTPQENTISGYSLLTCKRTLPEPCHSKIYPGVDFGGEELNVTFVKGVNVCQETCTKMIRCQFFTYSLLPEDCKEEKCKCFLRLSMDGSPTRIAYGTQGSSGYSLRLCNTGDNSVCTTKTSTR

IC50 [nM] | Structure (SMILES)
94.9 | [O-][n+]1cc(-c2cc(Cl)ccc2-n2cnnn2)ccc1C(Cn1cc(C(F)(F)F)cn1)n1cc(-c2ccnc(F)c2)cn1 (stereo not shown) [Example P321]
933 | N#Cc1cnn(C(F)F)c1-c1cnn(C(CC2CC2)c2ccc(-c3c(-n4cnnn4)ccc(Cl)c3F)c[n+]2[O-])c1 (single isomer, unassigned) [Example P663]
721 | O=C(O)c1ccc(-c2cnn(C(CCc3ccccc3)c3ccc(-c4cc(Cl)ccc4-n4cnnn4)c[n+]3[O-])c2)cc1 (stereo not shown) [Example P65]
123 | COC(=O)Nc1ccc(-c2cnn(C(CC3CCCC3)c3ccc(-c4c(-n5cnnn5)ccc(Cl)c4F)c[n+]3[O-])c2)cc1 (stereo not shown) [Example P110]
66.2 | [O-][n+]1cc(-c2c(-n3cc(Cl)nn3)ccc(Cl)c2F)ccc1[C@@H](Cn1cc(F)cn1)n1cc(-c2c(F)cnn2C(F)F)cn1 [Example P631]
630 | [O-][n+]1cc(-c2c(-n3cnnn3)ccc(Cl)c2F)ccc1C(CC1CC1)n1cc(-c2cnsc2)cn1 (stereo not shown) [Example P456]
7.2 | [2H]C([2H])([2H])OC([2H])([2H])CC(c1ccc(-c2c(-n3cc(C(F)(F)F)nn3)ccc(Cl)c2F)c[n+]1[O-])n1cc(-c2ccc(C(N)=O)c(F)c2)cn1 (single isomer, unassigned) [Example P913]
556 | NC(=O)C1CC1CC(c1ccc(-c2c(-n3cnnn3)ccc(Cl)c2F)c[n+]1[O-])n1cc(-c2ccc(N)nc2F)cn1 (single isomer, unassigned) [Example P337]
5.5 | COC(=O)Nc1ccc(-c2cnn(C(Cn3ccccc3=O)c3ccc(-c4c(-n5cnnn5)ccc(Cl)c4F)c[n+]3[O-])c2)cc1 (stereo not shown) [Example P305]
21.6 | CCC(c1ccc(-c2c(-n3cnnn3)ccc(Cl)c2F)c[n+]1[O-])n1cc(-c2ccc(C(N)=O)c(F)c2)cn1 (single isomer, unassigned) [Example P949]
383 | [O-][n+]1cc(F)c(-c2cnn(C(CC3CC3)c3ccc(-c4c(-n5cnnn5)ccc(Cl)c4F)c[n+]3[O-])c2)c(Cl)c1 (stereo not shown) [Example P518]
28.5 | COC(=O)NC(C)c1ccc(-c2cnn(C(Cc3ccccc3)c3ccc(-c4cc(Cl)ccc4-n4cnnn4)c[n+]3[O-])c2)cc1 (stereo not shown) [Example P58]
23 | [O-][n+]1cc(-c2cc(Cl)ccc2-n2cnnn2)ccc1C(Cn1cccn1)n1cc(-c2ccnc(C3CC3)c2)cn1 (stereo not shown) [Example P286]
780 | [O-][n+]1cc(-c2c(-n3cnnn3)ccc(Cl)c2F)ccc1C(CC1CC1)n1cc(-c2ccn[nH]2)cn1 (stereo not shown) [Example P467]
38 | O=C1OCCN1CC(c1ccc(-c2c(-n3cnnn3)ccc(Cl)c2F)c[n+]1[O-])n1cc(-c2ccnc(C(F)(F)F)c2)cn1 (single isomer, unassigned) [Example P430]
8 | Nc1ncc(-c2cnn([C@H](CC3CC3)c3ccc(-c4c(-n5cnnn5)ccc(Cl)c4F)c[n+]3[O-])c2)s1 [Example P614]
2.5 | O=C(O)c1ccc(-c2cnn(C(Cc3ccn(C(F)F)n3)c3ccc(-c4c(-n5cc(C(F)(F)F)nn5)ccc(Cl)c4F)c[n+]3[O-])c2)cc1F (single isomer, unassigned) [Example P931]
18 | Cn1ncnc1-c1cnn([C@H](CCOC(F)F)c2ccc(-c3c(-n4cnnn4)ccc(Cl)c3F)c[n+]2[O-])c1 [Example P550]
11.8 | O=C(O)c1ccc(-c2cnn(C(Cc3ncco3)c3ccc(-c4c(-n5cc(C(F)(F)F)nn5)ccc(Cl)c4F)c[n+]3[O-])c2)cc1F (stereo not shown) [Example P912]
27.2 | [O-][n+]1ccc(-c2cnn(C(Cn3cccn3)c3ccc(-c4c(-n5cnnn5)ccc(Cl)c4F)c[n+]3[O-])c2)cc1 (stereo not shown) [Example P348]

IC50 [nM] | Structure (SMILES)
7.5 | [O-][n+]1cc(-c2c(-n3cnnn3)ccc(Cl)c2F)ccc1[C@@H](Cc1ccc(F)cc1)n1cc(-c2ccn(C(F)F)n2)cn1 [Example P569]
126 | [O-][n+]1cc(-c2cc(Cl)ccc2-n2cnnn2)ccc1C(Cn1cc2c(n1)COCC2)n1cc(-c2ccnc(C(F)(F)F)c2)cn1 (stereo not shown) [Example P388]
30.7 | O=C(O)c1ccc(-c2cnn(C(CCOC(F)F)c3ccc(-c4c(-n5cc(C(F)(F)F)nn5)ccc(Cl)c4F)c[n+]3[O-])c2)cc1 (stereo not shown) [Example P838]
571 | CC(C)Oc1cc(C(CC2CC2)n2cc(-c3cnn(C)c(=O)c3)cn2)[n+]([O-])cc1-c1c(-n2cnnn2)ccc(Cl)c1F (stereo not shown) [Example P146]
30.7 | NC(=O)c1ccc(-c2cnn(C(Cc3ccn(C(F)F)n3)c3ccc(-c4c(-n5cc(Cl)nn5)ccc(Cl)c4F)c[n+]3[O-])c2)cc1 (single isomer, unassigned) [Example P910]
45.1 | CCOCCC(c1ccc(-c2c(-n3cnnn3)ccc(Cl)c2F)c[n+]1[O-])n1cc(-c2ccc(NC(=O)OC)cc2)cn1 (stereo not shown) [Example P204]
7 | COC(=O)Nc1ccc(-c2cnn(C(Cc3ccc(Cl)cc3)c3ccc(-c4c(-n5cnnn5)ccc(Cl)c4F)c[n+]3[O-])c2)cc1 (single isomer, unassigned) [Example P160]
12.6 | N#Cc1cc(-c2cnn(C(Cn3cc(F)cn3)c3ccc(-c4c(-n5cnnn5)ccc(Cl)c4F)c[n+]3[O-])c2)ccn1 (single isomer, unassigned) [Example P454]
670 | [O-][n+]1cc(-c2c(-n3cc(C4CC4)nn3)ccc(Cl)c2F)ccc1C(Cn1cc(F)cn1)n1cc(-c2ccnc(C(F)(F)F)c2)cn1 (stereo not shown) [Example P485]
59.3 | CCC(c1ccc(-c2c(-n3cnnn3)ccc(Cl)c2F)c[n+]1[O-])n1cc(-c2ccncc2)cn1 (single isomer, unassigned) [Example P212]
103 | CCC(c1ccc(-c2c(-n3cc(C(F)(F)F)nn3)ccc(Cl)c2F)c[n+]1[O-])n1cc(-c2ccc(C(N)=O)c(F)c2)cn1 (single isomer, unassigned) [Example P883]
2.3 | NC(=O)c1ccc(-c2cnn(C(Cc3ccn(C(F)F)n3)c3ccc(-c4c(-n5cc(C(F)(F)F)nn5)ccc(Cl)c4F)c[n+]3[O-])c2)cc1F (stereo not shown) [Example P952]
4 | O=C(O)c1ccc(-c2cnn([C@H](CCOC(F)F)c3ccc(-c4c(C(F)F)ccc(Cl)c4F)c[n+]3[O-])c2)cc1 [Example Q35]
220 | CCC(c1cc(OC)c(-c2cc(Cl)ccc2-n2cc(C(F)(F)F)nn2)c[n+]1[O-])n1cc(-c2ccc(C(N)=O)c(F)c2)cn1 (single isomer, unassigned) [Example P877]
50.5 | COCC[C@H](c1ccc(-c2c(C(F)F)ccc(Cl)c2F)c[n+]1[O-])n1cc(-c2ccc(C(=O)O)cc2)cn1 [Example Q34]
67.6 | [O-][n+]1cc(-c2c(-n3cnnn3)ccc(Cl)c2F)ccc1[C@H](Cc1ccc(F)cc1)n1cc(-c2ccnn2C(F)F)cn1 [Example P566]
841 | Cn1cc(-c2cnn(C(CC3CC3)c3ccc(-c4c(-n5cnnn5)ccc(Cl)c4F)c[n+]3[O-])c2)cn1 (stereo not shown) [Example P288]
16.2 | [O-][n+]1ccc(-c2cnn(C(Cc3ccc(Cl)cc3)c3ccc(-c4cc(Cl)ccc4-n4cnnn4)c[n+]3[O-])c2)cc1 (stereo not shown) [Example P172]
159 | O=C(C1CC1CC(c1ccc(-c2c(-n3cnnn3)ccc(Cl)c2F)c[n+]1[O-])n1cc(-c2ccncc2)cn1)N1CCC(c2ccccc2)C1 (stereo not shown) [Example P253]

Structure (SMILES) | IC50 [nM]
O=c1[nH]c(-c2ccc(-c3cnn(C(CCOC(F)F)c4ccc(-c5c(-n6cc(C(F)(F)F)nn6)ccc(Cl)c5F)c[n+]4[O-])c3)cc2)no1 (stereo not shown) [Example P903] | 11.5
